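Test compounds were applied to cells in 96-well plates for 48 hours at 5 doses. GI50 marks 50% less growth.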 The source made the active and inactive calls. Cut-off read from the data, not from the text of the source: active = GI50 up to about 1.1 µM and inactive = higher. Bounds are passed on as bounds.

Some test systems named below: NCI-H522; ACHN; HL-60; UACC-62; SF-295; IGROV-1; OVCAR-4; OVCAR-5; UACC-257; M14; RPMI-8226; OVCAR-3; EKVX; UO-31; K562; HOP-92; SK-OV-3; LOX IMVI; SNB-19; NCI-H226.
Assay in all cases: inhibition of tumour cell growth, NCI panel, 48 h

As for `Cn1ccnc1Sc1ccc(/C=N\NC(=O)c2cccc(F)c2)cc1[N+](=O)[O-]`, the GI50 with NCI-H522 was 24.7 µM (inactive); with ACHN, > 100 µM (inactive); with HL-60 it was > 100 µM (inactive); with UACC-62, 89.1 µM (inactive); in the assay with SF-295, 35.9 µM (inactive); in the assay with IGROV-1, 18.8 µM (inactive). For the same molecule, the GI50 in the assay with OVCAR-4 was 25.3 µM (inactive); in the assay with OVCAR-5, > 100 µM (inactive); with UACC-257, > 100 µM (inactive); with M14, > 100 µM (inactive); in the assay with RPMI-8226, > 100 µM (inactive); with OVCAR-3 it was 50 µM (inactive). Also, the GI50 was 45.1 µM (inactive) in the assay with EKVX; > 100 µM (inactive) in the assay on UO-31; > 100 µM (inactive) in the assay on K562; 22.7 µM (inactive) in the assay on HOP-92; 33.5 µM (inactive) in the assay on SK-OV-3; > 100 µM (inactive) in the assay on LOX IMVI. Also, the GI50 with SNB-19 is 27.8 µM (inactive); with NCI-H226, > 100 µM (inactive).
For `COC(=O)/C=C(\C(=O)OC)c1cc(C)c2cc(C(C)C)ccc(C)c1-2`, the GI50 was 13.1 µM (inactive) with NCI-H522; 25.6 µM (inactive) with ACHN; 34.7 µM (inactive) with HL-60; 32.2 µM (inactive) in the assay with UACC-62; 41.7 µM (inactive) in the assay with SF-295; 85.9 µM (inactive) in the assay with IGROV-1. Also, the GI50 in the assay with OVCAR-4 was 88.3 µM (inactive); in the assay with OVCAR-5 it was > 100 µM (inactive); with M14, 23.5 µM (inactive); with RPMI-8226, > 100 µM (inactive); with OVCAR-3, 49.4 µM (inactive); in the assay on EKVX it was 71 µM (inactive). Moreover, the GI50 is 20.5 µM (inactive) in the assay with UO-31; > 100 µM (inactive) in the assay with K562; 24.5 µM (inactive) in the assay with HOP-92; 85.9 µM (inactive) in the assay on SK-OV-3; 45.2 µM (inactive) in the assay on LOX IMVI; > 100 µM (inactive) in the assay on SNB-19. Besides, the GI50 in the assay with NCI-H226 was 53.3 µM (inactive).
Take `CN(NC(=O)/C(=C/c1ccc(O)cc1)NC(=O)c1ccccc1)c1ccnc2cc(Cl)ccc12`: the GI50 in the assay with NCI-H522 was 21 µM (inactive); with ACHN it was 18.3 µM (inactive); with HL-60, 2.79 µM (inactive); in the assay on UACC-62 it was 17.1 µM (inactive); in the assay with SF-295, 16.4 µM (inactive); in the assay on IGROV-1, 16.3 µM (inactive). Also, the GI50 in the assay on OVCAR-4 was 17 µM (inactive); in the assay on OVCAR-5, 22.5 µM (inactive); with UACC-257 it was 17.8 µM (inactive); in the assay on M14, 19 µM (inactive); in the assay on RPMI-8226 it was 13.4 µM (inactive); with OVCAR-3 it was 16.7 µM (inactive). In addition, the GI50 with EKVX is 18.2 µM (inactive); with UO-31, 5.85 µM (inactive); in the assay on K562, 6.35 µM (inactive); in the assay with HOP-92, 17.3 µM (inactive); in the assay with SK-OV-3, 19 µM (inactive); in the assay on LOX IMVI it was 18.8 µM (inactive). The GI50 with SNB-19 was 17.2 µM (inactive); with NCI-H226 it was 12.7 µM (inactive).
With `CCCc1ccc(/N=C\c2cc(OC)c(OC)c(OC)c2)cc1`, the GI50 was > 59.2 µM (inactive) with NCI-H522; > 100 µM (inactive) in the assay with ACHN; 21.5 µM (inactive) in the assay on HL-60; > 100 µM (inactive) with UACC-62; > 100 µM (inactive) in the assay with SF-295; > 100 µM (inactive) in the assay with IGROV-1. The GI50 with OVCAR-4 was > 100 µM (inactive); in the assay on OVCAR-5, > 100 µM (inactive); with UACC-257, > 100 µM (inactive); in the assay on M14, > 100 µM (inactive); with RPMI-8226 it was 24.4 µM (inactive); with OVCAR-3, > 100 µM (inactive). Also, the GI50 in the assay with EKVX was > 100 µM (inactive); in the assay with UO-31, > 100 µM (inactive); with K562, 36 µM (inactive); in the assay on HOP-92 it was > 51.3 µM (inactive); in the assay on SK-OV-3 it was > 100 µM (inactive); in the assay on LOX IMVI, > 52.1 µM (inactive). In addition, the GI50 in the assay with SNB-19 and with NCI-H226 was > 100 µM (inactive) in each case.
For `CCOC(CNc1nn2c(C)nnc2s1)OCC`, the GI50 with NCI-H522, in the assay on ACHN, in the assay with HL-60, with UACC-62, with SF-295 and in the assay with IGROV-1 was > 100 µM (inactive) each time. In addition, the GI50 in the assay on OVCAR-4, in the assay with OVCAR-5, with UACC-257, in the assay on M14, in the assay with RPMI-8226 and with OVCAR-3 was > 100 µM (inactive) each time. Also, the GI50 in the assay with EKVX, in the assay with K562, with HOP-92, in the assay with SK-OV-3, with LOX IMVI and in the assay on SNB-19 was > 100 µM (inactive) throughout. Further, the GI50 in the assay on NCI-H226 was > 100 µM (inactive).
For the molecule `CCO/C=N\C1=C(C#N)SC2=N/C(=C\c3ccco3)C(=O)N21`, the GI50 with NCI-H522, in the assay with ACHN, with HL-60, with SF-295, in the assay on IGROV-1 and in the assay with OVCAR-4 was > 100 µM (inactive) each time. Further, the GI50 in the assay on OVCAR-5, in the assay with UACC-257, in the assay with M14, in the assay on RPMI-8226, in the assay on OVCAR-3 and in the assay with EKVX was > 100 µM (inactive) in each case. In addition, the GI50 in the assay with UO-31, with K562, with HOP-92, in the assay on SK-OV-3, with LOX IMVI and with SNB-19 was > 100 µM (inactive) in each case. The GI50 in the assay with NCI-H226 was > 100 µM (inactive).
`COc1cccc(-c2cc(O)c3c(C)cc(C)nc3n2)c1`: the GI50 is 0.521 µM (active) in the assay on NCI-H522; 0.555 µM (active) in the assay with ACHN; 0.182 µM (active) in the assay on HL-60; 0.448 µM (active) with UACC-62; 0.493 µM (active) in the assay with SF-295; 0.486 µM (active) in the assay with IGROV-1. Further, the GI50 in the assay with OVCAR-4 was 4.09 µM (inactive); in the assay on OVCAR-5, 2.57 µM (inactive); in the assay with M14 it was 0.406 µM (active); in the assay with RPMI-8226 it was 0.345 µM (active); in the assay on OVCAR-3, 0.228 µM (active); in the assay on EKVX it was 3.85 µM (inactive). The GI50 with UO-31 is 0.867 µM (active); in the assay on K562 it was 0.158 µM (active); in the assay on HOP-92, 2.74 µM (inactive); with SK-OV-3, 0.468 µM (active); with LOX IMVI, 0.703 µM (active); in the assay on SNB-19, 0.714 µM (active). Moreover, the GI50 in the assay with NCI-H226 is 0.394 µM (active).

These data come from ChEMBL document CHEMBL1201862, “PubChem BioAssay data set” (2004).
